Reference: patent publication US20130096088A1, “Inhibitors of Protein Tyrosine Kinase Activity” (METHYLGENE INC., priority 2011, published 2013)
Where two headings read alike, the source gives them in different places.

What was measured:
[1] = tested on: phospho ERK1/2 (T202/Y204) in HUVEC cells; test: VEGF-dependent Erk phosphorylation; format: cell-based; conditions: VEGF165 150 ng/ml, Western blot, read-out: P_ERK IC50UM
Text: VEGF-Dependent Erk Phosphorylation
HUVEC cells are purchased from Cambrex Bio Science Walkersville, Inc and cultured according to the vendor's instructions. The full-length coding sequence of VEGF165 is cloned using the Gateway Cloning Technology (Invitrogen) for baculovirus expression Sf9 cells. VEGF165 is purified from conditioned media using a NaCl gradient elution from a HiTrap heparin column (GE Healthcare Life Sciences) followed by an imidazole gradient elution from a HiTrap chelating column (GE Healthcare Life Sciences), then buffer stored in PBS supplemented with 0.1% BSA and filter sterilized
Cells are seeded at 8000 cells/well of a 96 wells plate and grown for 48 hours. Cells are then grown overnight in serum and growth factor-free medium and exposed for 1.5 h to compounds dilutions. Following a 15 min incubation in medium, VEGF165 (150 ng/ml) cells are lysed in ice-cold lysis buffer (50 mM HEPES, pH 7.4, 150 mM NaCl, 1.5 mM MgCl2, 1% Triton X-100, 10% glycerol) containing 1 mM 4-(2 aminoethyl)benzenesulfonyl fluoride hydrochloride, 200 μM sodium orthovanadate, 1 mM sodium fluoride, 10 μg/mL leupeptin, 10 μg/mL aprotinin, 1 μg/mL pepstatin and 50 μg/mL Na-p-tosyl-L-lysine chloromethyl ketone hydrochloride and processed as Western blots to detect anti-phospho ERK1/2 (T202/Y204) (Cell Signaling Technologies).
lysates samples from single treatment wells are separated on 5-20% SDS-PAGE gels and immunobloting is performed using Immobilon polyvinylidene difluoride membranes (Amersham) according to the manufacturer's instructions. The blots are washed in Tris-buffered saline with 0.1% Tween 20 detergent (TBST) and probed for antibodies against phospho-Thr202/Tyr204-ERK (Cell signaling technologies. Chemiluminescence detection (Amersham, ECL plus) is performed according to the manufacturer's instructions using a Storm densitometer (GE Healthcare; 800 PMT, […]) for imaging and densitometry analysis. Values of over the range of dilution are used to prepare IC50 curves using a 4-parameter fit model. These curves are calculated using GraFit

VEGFR2 (KDR) = molecular target: T1, VEGFR2 (KDR) (Homo sapiens, UniProt P35968); test: In vitro receptor tyrosine kinase assay (VEGF receptor KDR), DELFIA; format: biochemical; conditions: recombinant GST-VEGFR2 806-1356, ATP 0.6 uM; read-out: VEGFR IC50UM
T1 construct: made in house; host or cells: Sf9 cells (Spodoptera frugiperda), baculovirus
T1 sequence (P35968 806-1356): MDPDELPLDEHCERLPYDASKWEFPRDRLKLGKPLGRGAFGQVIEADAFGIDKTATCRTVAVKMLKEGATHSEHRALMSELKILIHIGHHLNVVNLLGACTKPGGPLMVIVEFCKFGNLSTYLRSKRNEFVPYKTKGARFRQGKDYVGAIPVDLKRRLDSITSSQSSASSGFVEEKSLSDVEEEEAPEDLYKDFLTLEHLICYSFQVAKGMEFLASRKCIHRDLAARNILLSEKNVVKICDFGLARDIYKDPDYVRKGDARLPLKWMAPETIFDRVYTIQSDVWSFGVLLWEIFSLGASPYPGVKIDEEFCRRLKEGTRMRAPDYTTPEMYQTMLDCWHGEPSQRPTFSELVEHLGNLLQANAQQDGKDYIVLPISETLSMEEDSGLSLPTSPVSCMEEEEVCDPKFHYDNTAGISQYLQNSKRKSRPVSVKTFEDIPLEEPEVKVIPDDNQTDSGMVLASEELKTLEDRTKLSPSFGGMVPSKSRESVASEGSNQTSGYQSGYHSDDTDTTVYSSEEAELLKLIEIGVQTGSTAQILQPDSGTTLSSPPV
Text: In Vitro Receptor Tyrosine Kinase Assay (VEGF Receptor KDR)
This test measures the ability of compounds to inhibit the enzymatic activity of recombinant human VEGF receptor enzymatic activity.
A 1.6-kb cDNA corresponding to the catalytic domain of VEGFR2 (KDR) (Genbank accession number AF035121 amino acid 806 to 1356) is cloned into the Pst I site of the pDEST20 Gateway vector (Invitrogen) for the production of a GST-tagged version of that enzyme. This construct is used to generate recombinant baculovirus using the Bac-to-Bac™ system according to the manufacturer's instructions (Invitrogen).
The GST-VEGFR2806-1356 protein is expressed in Sf9 cells (Spodoptera frugiperda) upon infection with recombinant baculovirus construct. Briefly, Sf9 cells grown in suspension and maintained in serum-free medium (Sf900 II supplemented with gentamycin) at a cell density of about 2×10^6 cells/ml are infected with the above-mentioned viruses at a multiplicity of infection (MOI) of 0.1 during 72 hours at 27° C. with agitation at 120 rpm on a rotary shaker. Infected cells are harvested by centrifugation at 398 g for 15 min. Cell pellets are frozen at −80° C. until purification is performed.
All steps described in cell extraction and purification are performed at 4° C. Frozen Sf9 cell pellets infected with the GST-VEGFR2806-1356 recombinant baculovirus are thawed and gently resuspended in Buffer A (PBS pH 7.3 supplemented with 1 μg/ml pepstatin, 2 μg/ml Aprotinin and leupeptin, 50 μg/ml PMSF, 50 μg/ml TLCK and 10 μM E64 and 0.5 mM DTT) using 3 ml of buffer per gram of cells. Suspension is Dounce homogenized and 1% Triton X-100 is added to the homogenate after which it is centrifuged at 22500 g, 30 min., 4° C. The supernatant (cell extract) is used as starting material for purification of GST-VEGFR2806-1356.
The supernatant is loaded onto a GST-agarose column (Sigma) equilibrated with PBS pH 7.3. Following a four column volume (CV) wash with PBS pH 7.3+1% Triton X-100 and 4 CV wash with buffer B (50 mM Tris pH 8.0, 20% glycerol and 100 mM NaCl), bound proteins are step eluted with 5 CV of buffer B supplemented with 5 mM DTT and 15 mM glutathion. GST-VEGFR2806-1356 enriched fractions from this chromatography step are pooled based on U.V. trace i.e. fractions with high O.D.280. Final GST-VEGFR2806-1356 protein preparations concentrations are about 0.7 mg/ml with purity approximating 70%. Purified GST-VEGFR2806-1356 protein stocks are aliquoted and frozen at −80° C. prior to use in enzymatic assay.
Inhibition of VEGFR/KDR is measured in a DELFIA™ assay (Perkin Elmer). The substrate poly(Glu4,Tyr) is immobilized onto black high-binding polystyrene 96-well plates. The coated plates are washed and stored at 4° C. During the assay, the enzyme is pre-incubated with inhibitor and Mg-ATP on ice in polypropylene 96-well plates for 4 minutes, and then transferred to the coated plates. The subsequent kinase reaction takes place at 30° C. for 10-30 minutes. ATP concentrations in the assay are 0.6 uM for VEGFR/KDR (2× the Km). Enzyme concentration is 5 nM. After incubation, the kinase reactions are quenched with EDTA and the plates are washed. Phosphorylated product is detected by incubation with Europium-labeled anti-phosphotyrosine MoAb. After washing the plates, bound MoAb is detected by time-resolved fluorescence in a Gemini SpectraMax reader (Molecular Devices). Compounds are evaluated over a range of concentrations, and IC50 values (concentration of compounds giving 50% inhibition of enzymatic activity) are determined.

[2] = tested on: laser-induced choroidal neovascularization (CNV); test: In vivo choroidal neovascularization (CNV) model; set-up: species or system rat; conditions: Rattus norvegicus, 240 h; Brown-Norway rats, dose 3 nmol/eye, injection on Day 3, CNV area on Day 10; read-out: Inhibition of CNV Progression (%)
Text: In Vivo Choroidal Neovascularization (CNV) Model This test measures the capacity of compounds to inhibit CNV progression. CNV is the main cause of severe vision loss in patients suffering from age-related macular degeneration (AMD). Male Brown-Norway rats (Charles River Japan Co., Ltd.) were used in these studies. Rats were anesthetized by intraperitoneal injection of pentobarbital, and the right pupil was dilated with 0.5% tropicamide and 0.5% phenylephrine hydrochloride. The right eye received 6 laser burns between retinal vessels using a slit lamp delivery system of Green laser Photocoagulator (Nidex Inc., Japan), and microscope slide glass with 10 mg/mL hyaluronic acid (SIGMA) used as a contact lens. The laser power was 200 mW for 0.1 second and spot diameter was 100 μm. At the time of laser burn, bubble production was observed; which is an indication of rupture of Bruch's membrane which is important for CNV generation. After animals were anesthetized, and the right pupil dilated (as mentioned above), the right eye of the animal received the compound or vehicle by an injection (3 μL/eye) at doses of 3 or 10 nmol/eye on Day 3. The compounds were dissolved or suspended in CBS, PBS, or other adequate vehicles before injection. On Day 10, the animals were anesthetized with ether, and high molecular weight fluorescein isothiocyanate (FITC)-dextran (SIGMA, 2×10^6 MW) was injected via a tail vein (20 mg/rat). About 30 min after FITC-dextran injection, animals were euthanized by ether or carbon dioxide, and the eyes were removed and fixed with 10% formaline neutral buffer solution. After over 1 hour of fixation, RPE-choroid-sclera flat mounts were obtained by removing cornea, lens and retina from the eyeballs. The flat mounts were mounted in 50% glycerol on a microscope slide, and the portion burned by laser was photographed using a fluorescence microscope (Nikon Corporation, excitation filter: 465-495 nm, absorption filter: 515-555 nm). The CNV area was obtained by measurement of hyper-fluorescence area observed on the photograph using Scion image. The average CNV area of 6 burns was used as an individual value of CNV area, and the average CNV area of compound treated group was compared with that of the vehicle-treated group.

SMILES	IC50 ([1]; Homo sapiens)	IC50 (VEGFR2 (KDR))	inhibition in vivo at 3 nmol/eye [2]	IC50 [1]
O=C(Nc1ccc(Oc2ccnc3cc(-c4ccc(CN5CCN(C(=O)COP(=O)(O)O)CC5)cn4)sc23)c(F)c1)NC1CC1 [Compound 6, 2-(4-((6-(7-(4-(3-Cyclopropylureido)-2-fluorophenoxy)thieno[3,2-b]pyridin-2-yl)pyridin-3-yl)methyl)piperazin-1-yl)-2-oxoethyl dihydrogen phosphate]	0.4 nM	9 nM	20.9%	–
COCCOCCOCCOCCN1CCN(Cc2ccc(-c3cc4nccc(Oc5ccc(NC(=O)NC6CC6)cc5F)c4s3)nc2)CC1 [Compound 7, 1-(4-(2-(5-((4-(2,5,8,11-Tetraoxamidecan-13-yl)piperazin-1-yl)methyl)pyridin-2-yl)thieno[3,2-b]pyridin-7-yloxy)-3-fluorophenyl)-3-cyclopropylurea]	0.2 nM	6 nM	18.1%	–
CC(C)[C@H](N)C(=O)N[C@H](C(=O)OCC(=O)N1CCN(Cc2ccc(-c3cc4nccc(Oc5ccc(NC(=O)NC6CC6)cc5F)c4s3)nc2)CC1)C(C)C [Compound 12, (S)-2-(4-((6-(7-(4-(3-Cyclopropylureido)-2-fluorophenoxy)thieno[3,2-b]pyridin-2-yl)pyridin-3-yl)methyl)piperazin-1-yl)-2-oxoethyl 2-((S)-2-amino-3-methylbutanamido)-3-methylbutanoate]	–	13 nM	47%	–
CC(C)[C@H](NC(=O)CN)C(=O)OCC(=O)N1CCN(Cc2ccc(-c3cc4nccc(Oc5ccc(NC(=O)NC6CC6)cc5F)c4s3)nc2)CC1 [Compound 13]	–	10 nM	41.6%	–
COCCOCCOCCOCCC(=O)OCC(=O)N1CCN(Cc2ccc(-c3cc4nccc(Oc5ccc(NC(=O)NC6CC6)cc5F)c4s3)nc2)CC1 [Compound 18]	–	6 nM	42.9%	–
CCNC(=O)N(CCOCCOCCOCCOC)C1CCN(Cc2ccc(-c3cc4nccc(Oc5ccc(NC(=O)NC6CC6)cc5F)c4s3)nc2)CC1 [Compound 23, 1-(4-(2-(5-((4-Ethylaminocarbonyl-(2,5,8,11-tetraoxamidecan-13-ylamino)piperidin-1-yl)methyl)pyridin-2-yl)thieno[3,2-b]pyridin-7-yloxy)-3-fluorophenyl)-3-cyclopropylurea]	–	18 nM	44.2%	–
COCCOCCOCCOCCN(C(=O)CO)C1CCN(Cc2ccc(-c3cc4nccc(Oc5ccc(NC(=O)NC6CC6)cc5F)c4s3)nc2)CC1 [Compound 24]	–	15 nM	28.9%	–
COCCOCCOCCOCCN(C(=O)C(F)(F)F)C1CCN(Cc2ccc(-c3cc4nccc(Oc5ccc(NC(=O)NC6CC6)cc5F)c4s3)nc2)CC1 [Compound 25]	–	53 nM	20.9%	–
COCCOCCOCCOCCC(=O)N1CCN(Cc2ccc(-c3cc4nccc(Oc5ccc(NC(=O)NC6CC6)cc5F)c4s3)nc2)CC1 [Compound 46, 1-(4-(2-(5-((4-2,5,8,11-Tetraoxatetradecanepiperazin-1-yl)methyl)pyridin-2-yl)thieno[3,2-b]pyridin-7-yloxy)-3-fluorophenyl)-3-cyclopropylurea]	–	11 nM	24.8%	–
COCCOCCOCCOCCOCCC(=O)N1CCN(Cc2ccc(-c3cc4nccc(Oc5ccc(NC(=O)NC6CC6)cc5F)c4s3)nc2)CC1 [Compound 49]	–	8 nM	20.9%	–
COCCOCCOCCOCCOC1CN(Cc2ccc(-c3cc4nccc(Oc5ccc(NC(=O)NC6CC6)cc5F)c4s3)nc2)C1 [Compound 60, 1-(4-(2-(5-((3-(2,5,8,11-tetraoxamidecan-13-yloxy)azetidin-1-yl)methyl)pyridin-2-yl)thieno[3,2-b]pyridin-7-yloxy)-3-fluorophenyl)-3-cyclopropylurea]	–	10 nM	–	1.5 nM
COCCOCCOCCOCCN1CCC(N(Cc2ccc(-c3cc4nccc(Oc5ccc(NC(=O)NC6CC6)cc5F)c4s3)nc2)C(C)=O)CC1 [Compound 69, N-(1-(2,5,8,11-Tetraoxamidecan-13-yl)piperidin-4-yl)-N-((6-(7-(4-(3-cyclopropylureido)-2-fluorophenoxy)thieno[3,2-b]pyridin-2-yl)pyridin-3-yl)methyl)acetamide]	–	12 nM	–	25 nM
